What is called IC50 is the concentration that inhibits the measured activity by half.

This note sets out measurements from patent US5665745A, “Heterocyclic compounds and their preparation and use” (Eli Lilly and Company, priority 1995, dated 1997).

Assay [1] addresses T1, muscarinic receptors (M1 -site, pirenzepine sensitive site) (Rattus norvegicus, UniProt P08482).
T1 construct: from tissue; host or cells: cerebral cortex membranes of male Wistar rats
T1 sequence (P08482 1-460): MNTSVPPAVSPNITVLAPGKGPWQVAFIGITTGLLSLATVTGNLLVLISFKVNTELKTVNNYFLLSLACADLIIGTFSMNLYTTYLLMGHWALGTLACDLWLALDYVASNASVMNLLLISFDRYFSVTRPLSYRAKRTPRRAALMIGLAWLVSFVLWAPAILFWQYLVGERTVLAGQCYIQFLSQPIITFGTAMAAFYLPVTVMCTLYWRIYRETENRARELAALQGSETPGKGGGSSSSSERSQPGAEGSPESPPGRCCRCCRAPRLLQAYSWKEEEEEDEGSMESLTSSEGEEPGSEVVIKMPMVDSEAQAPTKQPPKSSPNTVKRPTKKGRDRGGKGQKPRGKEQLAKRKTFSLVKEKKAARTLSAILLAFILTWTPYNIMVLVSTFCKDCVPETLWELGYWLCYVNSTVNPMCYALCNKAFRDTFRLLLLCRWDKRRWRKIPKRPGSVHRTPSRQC
Kind of assay: inhibition of ^3 HPRZ (pirenzepine, [N-methyl-^3 H]) binding to rat cerebral cortex membranes. Further details: species or system rat (male Wistar. Here is the method: Furthermore the pharmacological properties of the compounds of the invention can also be illustrated by determining their capability to inhibit ^3 HPRZ (pirenzepine, [N-methyl-^3 H]) binding to rat cerebral cortex membranes.
Pirenzepine binds selectively to subtype of muscarinic receptors. Historically the type is named the M1 -site, whereas pirenzepine sensitive site would be more appropriate.
All preparations are performed at 0°-4° C. unless otherwise indicated. Fresh cortex ([…]) from male Wistar rats (150-200 g) is homogenized for 5-10 s in 10 mL 20 mM Hepes pH: 7.4, with an Ultra-Turrax homogenizer. The homogenizer is rinsed with 2×10 mL of buffer and the combined suspension centrifuged for 15 min. at 40,000×g. The pellet is washed three times with buffer. In each step the pellet is homogenized as before in 3×10 mL of buffer and centrifuged for 10 min. at 40,000×g.
The final pellet is homogenized in 20 mM Hepes pH: 7.4 (100 mL per g of original tissue) and used for binding assay. Aliquots of 0.5 mL is added 20 μl of test solution and 25 μL of ^3 HPRZ (1.0 nM, final conc.), mixed and incubated for 60 min. at 20° C. Non-specific binding is determined in triplicate using atropine (1 ,μg/mL, final conc.) as the test substance. After incubation samples are added 5 mL of ice-cold buffer and poured directly onto Whatman GF/C glass fiber filters under suction and immediately washed 2 times with 5 mL of ice-cold buffer. The amount of radioactivity on the filters are determined by conventional liquid scintillation counting. Specific binding is total binding minus non-specific binding.
Test substances are dissolved in 10 mL water, at a concentration of 0.22 mg/mL.
The test value will be given as IC50 (the concentration (nM) of the test substance which inhibits the specific binding of ^3 HPRZ by 50%). IC50 =(applied test substance concentration) x(Cx /Co -Cx)nM where Co is specific binding in control assays and Cx is the specific binding in the test assay. (The calculations assume normal mass-action kinetics).

Assay [2] addresses muscarinic acetylcholine receptors. Kind of assay: inhibition of specific binding of ^3 H-Oxotremorine-M (^3 H-Oxo). Further details: species or system rat (male Wistar. The note with it: ^3 H-Oxotremorine 1.0 nM, rat cortex, 30 min. at 25° C. The text has this: The pharmacological properties of the compounds of the invention can be illustrated by determining their capability to inhibit the specific binding of ^3 H-Oxotremorine-M (^3 H-Oxo). Birdsdall N. J. M., Hulme E. C., and Burgen A. S. V. (1980). "The Character of Muscarinic Receptors in Different Regions of the Rat Brain" Proc. Roy. Soc. London (Series B) 207,1.
^3 H-Oxo labels muscarinic receptor in the CNS (with a preference for agonist domains of the receptors). Three different sites are labeled by ^3 H-Oxo. […] Using the present experimental conditions only the high and medium affinity sites are determined.
The inhibitory effects of compounds on ^3 H-oxo binding reflects the affinity for muscarinic acetylcholine receptors.
All preparations are performed at 0°-4° C. unless otherwise indicated. Fresh cortex (0.1-1 g) from male Wistar rats (150-250 g) is homogenized for 5-10 seconds in 10 mL […] Hepes pH: 7.4, with an Ultra-Turrax homogenizer. The homogenizer is rinsed with 10 mL of buffer and the combined suspension centrifuged for 15 min. at 40,000×g. The pellet is washed three times with buffer. In each step the pellet is homogenized as before in 2×10 mL of buffer and centrifuged for 10 min. at 40,000×g.
The final pellet is homogenized in 20 mM Hepes pH: 7.4 (100 mL per g of original tissue) and used for binding assay. Aliquots of 0.5 mL is added 25 μL of test solution and 25 μL of ^3 H-Oxotremorine (1.0 nM, final concentration) mixed and incubated for 30 min. at 25° C. Non-specific binding is determined in triplicate using arecoline ([…], final concentration) as the test substance. After incubation samples are added 5 mL of ice-cold buffer and poured directly onto Whatman GF/C glass fiber filters under suction and immediately washed 2 times with 5 mL of ice-cold buffer. The amount of radioactivity on the filters are determined by conventional liquid scintillation counting. Specific binding is total binding minus non specific binding.
Test substances are dissolved in 10 mL water (if necessary heated on a steam-bath for less than 5 min.) at a concentration of 2.2 mg/mL. […] The test value will be given as IC50 (the concentration (nM) of the test substance which inhibits the specific binding of ^3 H-oxo by 50%). IC50 =(applied test substance concentration) x(Cx /Co -Cx)nM where Co is specific binding in control assays and Cx is the specific binding in the test assay. (The calculations assume normal mass-action kinetics).

The mark [3] stands for this setting: ^3 HPRZ 1.0 nM, rat cortex, 60 min. at 20° C., read-out: ^3 HPRZ IC50 (head from b208 on: Pir IC-50).

The structures appear in SMILES notation. Like-named read-outs stand apart in the source and are kept apart here.

On to `CCCCCCSc1nsnc1OC1CN2CCC1CC2` (racemic) [Compound 17, (±)-3-Hexylthio-4-(1-azabicyclo[2.2.2]octyl-3-oxy)-1,2,5-thiadiazole], for which the IC50 in assay [1] was 8.8 nM; in assay [2], 5.2 nM.
In the same order, the values of `CC(C)(C)CCSc1nsnc1OC1CN2CCC1CC2` (racemic) [Compound 18, (±)-3-(3,3-Dimethylbutylthio)-4-(1-azabicyclo[2.2.2]-octyl-3-oxy)-1,2,5-thiadiazole] are 73 nM and 101 nM.
`c1csc(SCCSc2nsnc2OC2CN3CCC2CC3)c1` (racemic) [Compound 19, (±)-3-(2-(2-Thienylthio)ethylthio)-4-(1-azabicyclo-[2.2.2]octyl-3-oxy)-1,2,5-thiadiazole]: the IC50 in assay [1] stood at 7.5 nM; in assay [2] it was 0.36 nM.
The like results for `FC(F)(F)C(F)(F)CSc1nsnc1OC1CN2CCC1CC2` (racemic) [Compound 20, (±)-3-(2,2,3,3,3-Pentafluoropropylthio)-4-(1-azabicyclo-[2.2.2]octyl-3-oxy)-1,2,5-thiadiazole] were, in that order, 4 nM and 2.6 nM.
The like results for `c1csc(CCCSc2nsnc2OC2CN3CCC2CC3)c1` (racemic) [Compound 21, (±)-3-(3-(2-Thienyl)propylthio)-4-(1-azabicyclo[2.2.2]-octyl-3-oxy-1,2,5-thiadiazole] were, in that order, 4 nM and 4.4 nM.
In the same order, the values of `CCCCSc1nsnc1OCC1CN2CCC1CC2` (racemic) [Compound 22, (±)-3-Butylthio-4-((1-azabicyclo[2.2.2]octan-3-yl)-methoxy)-1,2,5-thiadiazole] are 7.4 nM and 23 nM.
As to `CCCCOc1nsnc1OC1CCNC1` (racemic) [Compound 27, (±)-3-Butyloxy-4-(3-pyrrolidinyloxy)-1,2,5-thiadiazole], the IC50 stood at 370 nM in assay [1] (setting [3]) and 123 nM in assay [2].
With `CCCCOc1nsnc1OC1CCN(C)C1` (racemic) [Compound 28, (±)-3-Butyloxy-4-(1-methyl-3-pyrrolidinyloxy)-1,2,5-thiadiazole], the IC50 was 25 nM in assay [1] (setting [3]) and 37 nM in assay [2].
Consider `CCCCSc1nsnc1OC1CCCN(C)C1` (racemic) [Compound 29, (±)-3-Butylthio-4-(1-methyl-3-piperidyloxy)-1,2,5-thiadiazole], for which the IC50 was 20 nM in assay [1] (setting [3]) and 34 nM in assay [2].
As to `CC(C)CCCSc1nsnc1OC1CN2CCC1CC2` (racemic) [Compound 39, (±)-3-(4-Methylpentylthio)-4-(1-azabicyclo[2.2.2]octyl-3-oxy)-1,2,5-thiadiazole], the IC50 in assay [1] was found to be 15 nM; in assay [2] it was 13 nM.
For `c1ccc(CCCSc2nsnc2OC2CN3CCC2CC3)cc1` (racemic) [Compound 40, (±)-3-(3-Phenylpropylthio)-4-(1-azabicyclo[2.2.2]octyl-3-oxy)-1,2,5-thiadiazole], the IC50 in assay [1] amounted to 2.5 nM; in assay [2], 1.8 nM.
In the same order, the values of `N#Cc1ccc(CSc2nsnc2OC2CN3CCC2CC3)cc1` (racemic) [Compound 41, (±)-3-(4-Cyanobenzylthio)-4-(1-azabicyclo[2.2.2]octyl-3-oxy)-1,2,5-thiadiazole] are 19 nM and 25 nM.
Regarding `Fc1ccc(CSc2nsnc2OC2CN3CCC2CC3)cc1` (racemic) [Compound 42, (±)-3-(4-Fluorobenzylthio)-4-(1-azabicyclo[2.2.2]octyl-3-oxy)-1,2,5-thiadiazole], the results for the IC50 in assay [1] and in assay [2] were 9.3 nM and 14 nM, respectively.
For `c1ccc(CCSc2nsnc2OC2CN3CCC2CC3)cc1` (racemic) [Compound 43, (±)-3-(2-Phenylethylthio)-4-(1-azabicyclo[2.2.2]octyl-3-oxy)-1,2,5-thiadiazole], the IC50 in assay [1] was determined as 33 nM; in assay [2], 29 nM.
The like results for `c1ccc(OCCSc2nsnc2OC2CN3CCC2CC3)cc1` (racemic) [Compound 44, (±)-3-(2-Phenyloxyethylthio)-4-(1-azabicyclo[2.2.2]octyl-3-oxy)-1,2,5-thiadiazole] were, in that order, 15 nM and 7.1 nM.
For the compound `CCCCOc1nsnc1O[C@@H]1CCC[C@H]1N(C)C` (racemic) [Compound 52, (±)-trans-3-Butyloxy-4-(2-dimethylaminocyclopentyloxy)-1,2,5-thiadiazole], the results for the IC50 in assay [1] (setting [3]) and in assay [2] were 475 nM and over 1000 nM, respectively.
The like results for `CCCCSc1nsnc1OC1CCNC1` (racemic) [Compound 53, (±)-3-Butylthio-4-(3-pyrrolidnyloxy)-1,2,5-thiadiazole] were, in that order, 35 nM and 24 nM.
With `FC(F)(F)c1ccc(SCCSc2nsnc2OC2CN3CCC2CC3)s1` (racemic) [Compound 55, (±)-3-(2-(2-Thio-5-trifluoromethylthienyl)ethylthio)-4-(1-azabicyclo[2.2.2]octyl-3-oxy)-1,2,5-thiadiazole], the IC50 in assay [1] is 23 nM; in assay [2], 11 nM.
In the same order, the values of `c1csc(-c2ccc(Sc3nsnc3OC3CN4CCC3CC4)s2)c1` (racemic) [Compound 57, (±)-3-(2-(5-(2-Thienyl)thienyl)thio)-4-(1-azabicyclo [2.2.2]octyl-3-oxy)-1,2,5-thiadiazole] are 37 nM and 88 nM.
As to `c1csc(-c2ccc(SCCSc3nsnc3OC3CN4CCC3CC4)s2)c1` (racemic) [Compound 59, (±)-3-(2-(2-(5-(2-Thienyl)thienyl)thio)ethylthio)-4-(1-azabicyclo[2.2.2]octyl-3-oxy)-1,2,5-thiadiazole], the IC50 in assay [1] (setting [3]) was found to be 102 nM; in assay [2], 104 nM.
Regarding `c1csc(Sc2nsnc2OC2CN3CCC2CC3)c1` (racemic) [Compound 60, (±)-3-(2-Thienyl)thio)-4-(1-azabicyclo[2.2.2]octyl-3-oxy)-1,2,5-thiadiazole], the figures for the IC50 in assay [1] and in assay [2] were 14 nM and 19 nM, respectively.
Turning to `O=C1SCCN1CCCSc1nsnc1OC1CN2CCC1CC2` (racemic) [Compound 61, (±)-3-(3-N-(2-Thiazolidonyl)propylthio)-4-(1-azabicyclo[2.2.2]octyl-3-oxy)1,2,5-thiadiazole], the IC50 in assay [1] came out at 5.8 nM; in assay [2], 1.1 nM.
